Where “and” joins values, the source holds several entries; their conditions need not be identical. Equal values may be shown once.
molecular target: T1, N370S glucocerebrosidase from human spleen homogenate (Homo sapiens, UniProt P04062, N409S); assay: qHTS fluorogenic enzyme assay for activators of N370S glucocerebrosidase (4-methylumbelliferyl-beta-D-glucopyranoside substrate); format: biochemical; conditions: pH 5.0, 37° C. 40 min
T1 construct: N370S glucocerebrosidase from human spleen homogenate as the enzyme preparation; from tissue; host or cells: human spleen homogenate
T1 sequence (P04062 40-536 N409S): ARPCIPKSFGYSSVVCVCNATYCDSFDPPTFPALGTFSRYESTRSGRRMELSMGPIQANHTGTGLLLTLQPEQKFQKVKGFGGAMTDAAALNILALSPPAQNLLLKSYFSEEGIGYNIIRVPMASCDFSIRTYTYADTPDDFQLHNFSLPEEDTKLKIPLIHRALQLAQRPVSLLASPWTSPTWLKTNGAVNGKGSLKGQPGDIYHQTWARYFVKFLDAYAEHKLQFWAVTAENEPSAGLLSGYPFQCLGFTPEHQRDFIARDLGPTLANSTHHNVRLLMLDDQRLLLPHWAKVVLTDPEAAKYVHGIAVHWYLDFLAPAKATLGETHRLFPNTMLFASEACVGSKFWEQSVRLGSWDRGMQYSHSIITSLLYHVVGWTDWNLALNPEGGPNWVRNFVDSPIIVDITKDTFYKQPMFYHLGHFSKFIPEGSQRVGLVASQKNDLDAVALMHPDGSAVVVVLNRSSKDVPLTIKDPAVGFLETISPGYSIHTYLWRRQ
Description: qHTS Assay for Inhibitors and Activators of N370S glucocerebrosidase as a Potential Chaperone Treatment of Gaucher Disease: Primary Screen Confirmation
This is a fluorogenic enzyme assay with 4-methylumbelliferyl-beta-D-glucopyranoside as the substrate and N370S glucocerebrosidase from human spleen homogenate as the enzyme preparation. Upon the hydrolysis of this fluorogenic substrate, the resulting product, […] which can be detected by a standard fluorescence plate reader. Data were normalized to the controls for basal activity (without enzyme) and 100% activity (with enzyme). The AC50 values were determined from concentration-response data modeled with the standard Hill equation.
Human spleen homogenate is prepared as follows by homogenizing spleen with assay buffer containing 50 mM citric acid (titrated with potassium phosphate to pH 5.0), 100 mM potassium chloride, 10 mM sodium chloride, 1 mM magnesium chloride, 0.01% Tween-20. The protein concentration of the human spleen homogenate is approximated 1.35 ug/ul.
The assay is performed in 1536 well plates according to the following protocol. (1) 2 ul spleen homogenate ([…] final) is added to each well. (2) 23 nL test compound in DMSO solution is added to each well. The final concentration of compound in the test well is 0.5 nM to 58 uM. (3) 2 ul of substrate (1 mM final) are added to each well. (4) Incubate assay plates at 37° C. for 40 min. (5) Add 2 ul stop solution (1M NaOH and 1M Glycine mixture, pH 10) to each well. (6) Detect the assay plate in a ViewLux plate reader (PerkinElmer) using 365 nm excitation with emission at 440 nm.

Compared with `O=C(Nc1ccc2c(c1)CCC2)c1cnn2c1NC(=C1CC1)C=C2C(F)F` [NCGC00182174-01, 5-cyclopropylidene-7-(difluoromethyl)-N-(2,3-dihydro-1H-inden-5-yl)-4,5-dihydropyrazolo[1,5-a]pyrimidine-3-carboxamide], `O=C(Nc1ccc(Br)cc1F)c1cnn2c1NC(=C1CC1)C=C2C(F)F` [NCGC00182179-01, N-(4-bromo-2-fluorophenyl)-5-cyclopropylidene-7-(difluoromethyl)-4,5-dihydropyrazolo[1,5-a]pyrimidine-3-carboxamide] is 1.6-fold lower in AC50: 3.98 µM for the first, 2.51 µM for the second.

`O=C(NC1CCCCC1)c1cnn2c1NC(=C1CC1)C=C2C(F)F` [NCGC00182175-01, N-cyclohexyl-5-cyclopropylidene-7-(difluoromethyl)-4,5-dihydropyrazolo[1,5-a]pyrimidine-3-carboxamide] and `CC(C)(C)C1CCC(NC(=O)c2cnn3c2NC(=C2CC2)C=C3C(F)F)CC1` (stereo not drawn) [NCGC00182182-01, N-(4-tet-butylcyclohexyl)-5-cyclopropylidene-7-(difluoromethyl)-4,5-dihydropyrazolo[1,5-a]pyrimidine-3-carboxamide] are within 1.5-fold of each other in AC50: 12.6 µM for the first, 11.2 µM for the second.

`O=C(NC1CCCc2ccccc21)c1cnn2c1NC(=C1CC1)C=C2C(F)F` (stereo not drawn) [NCGC00182176-01, 5-cyclopropylidene-7-(difluoromethyl)-N-(1,2,3,4-tetrahydronaphthalen-1-yl)-4,5-dihydropyrazolo[1,5-a]pyrimidine-3-carboxamide] and `O=C(Nc1ccccc1Br)c1cnn2c1NC(=C1CC1)C=C2C(F)F` [NCGC00182188-01, N-(2-bromophenyl)-5-cyclopropylidene-7-(difluoromethyl)-4,5-dihydropyrazolo[1,5-a]pyrimidine-3-carboxamide] are within 1.5-fold of each other in AC50: 14.3 µM for the first, 12.6 µM for the second.

`O=C(Nc1cccc(Nc2ccccc2)c1)c1cnn2c1NC(=C1CC1)C=C2C(F)F` [NCGC00182185-01, 5-cyclopropylidene-7-(difluoromethyl)-N-(3-(phenylamino)phenyl)-4,5-dihydropyrazolo[1,5-a]pyrimidine-3-carboxamide] and `O=C(Nc1ccccc1Sc1ccccc1)c1cnn2c1NC(=C1CC1)C=C2C(F)(F)F` [NCGC00182190-01, 5-cyclopropylidene-N-(2-(phenylthio)phenyl)-7-(trifluoromethyl)-4,5-dihydropyrazolo[1,5-a]pyrimidine-3-carboxamide] are within 1.5-fold of each other in AC50: 12.6 µM for the first, 14.1 µM for the second.

`C=C1C=C(C)n2ncc(C(=O)NCCCCCC)c2N1` [NCGC00182197-01, N-hexyl-7-methyl-5-methylene-4,5-dihydropyrazolo[1,5-a]pyrimidine-3-carboxamide] and `C=C1C=C(C)n2ncc(C(=O)Nc3ccc(C)cn3)c2N1` [NCGC00182198-01, 7-methyl-5-methylene-N-(5-methylpyridin-2-yl)-4,5-dihydropyrazolo[1,5-a]pyrimidine-3-carboxamide] are the same in AC50: 15.8 µM for the first, 15.8 µM for the second.

Going from `Cc1cc(C)n2ncc(C(=O)NCc3cccc(Cl)c3)c2n1` [NCGC00187965-01, N-(3-chlorobenzyl)-5,7-dimethylpyrazolo[1,5-a]pyrimidine-3-carboxamide] to `Cc1cc(C)n2ncc(C(=O)NCc3ccccc3)c2n1` [NCGC00187976-01, N-benzyl-5,7-dimethylpyrazolo[1,5-a]pyrimidine-3-carboxamide], the AC50 rises from 18.3 µM to 51.7 µM (2.8-fold).

`Cc1cc(C)n2ncc(C(=O)Nc3cc(F)cc(F)c3)c2n1` [NCGC00187967-01, N-(3,5-difluorophenyl)-5,7-dimethylpyrazolo[1,5-a]pyrimidine-3-carboxamide] and `Cc1cc(C)n2ncc(C(=O)Nc3ccc(F)cc3)c2n1` [NCGC00188766-01, N-(4-fluorophenyl)-5,7-dimethylpyrazolo[1,5-a]pyrimidine-3-carboxamide] are within 1.5-fold of each other in AC50: 6.18 µM for the first, 5.8 µM for the second.

`Cc1cc(C)n2ncc(C(=O)Nc3ccc4c(c3)CCC4)c2n1` [NCGC00187969-01, N-(2,3-dihydro-1H-inden-5-yl)-5,7-dimethylpyrazolo[1,5-a]pyrimidine-3-carboxamide] and `Cc1cc(C)n2ncc(C(=O)Nc3ccc(Br)cc3)c2n1` [NCGC00188756-01, N-(4-bromophenyl)-5,7-dimethylpyrazolo[1,5-a]pyrimidine-3-carboxamide] are within 1.5-fold of each other in AC50: 2.59 µM for the first, 2.06 µM for the second.

Compared with `CCc1ccc(NC(=O)c2cnn3c(C)cc(C)nc23)cc1` [NCGC00187970-01, N-(4-ethylphenyl)-5,7-dimethylpyrazolo[1,5-a]pyrimidine-3-carboxamide], `COc1ccc(NC(=O)c2cnn3c(C)cc(C)nc23)cc1` [NCGC00188768-01, N-(4-methoxyphenyl)-5,7-dimethylpyrazolo[1,5-a]pyrimidine-3-carboxamide] is 2.5-fold higher in AC50: 3.26 µM for the first, 8.19 µM for the second.

Compared with `Cc1cc(C)n2ncc(C(=O)NC3CCCCC3)c2n1` [NCGC00187971-01, N-cyclohexyl-5,7-dimethylpyrazolo[1,5-a]pyrimidine-3-carboxamide], `Cc1cc(C)n2ncc(C(=O)NC3CCC(C(C)(C)C)CC3)c2n1` (stereo not drawn) [NCGC00188754-01, N-(4-tert-butylcyclohexyl)-5,7-dimethylpyrazolo[1,5-a]pyrimidine-3-carboxamide] is 2.5-fold higher in AC50: 10.3 µM for the first, 25.9 µM for the second.

Going from `Cc1cc(C)n2ncc(C(=O)Nc3ccccc3)c2n1` [NCGC00187975-01, 5,7-dimethyl-N-phenylpyrazolo[1,5-a]pyrimidine-3-carboxamide] to `Cc1cc(C)n2ncc(C(=O)Nc3ccccc3C)c2n1` [NCGC00188770-01, 5,7-dimethyl-N-o-tolylpyrazolo[1,5-a]pyrimidine-3-carboxamide], the AC50 rises from 8.19 µM to 16.3 µM (2-fold).

First: Cc1cc(C)n2ncc(C(=O)NCC(C)C)c2n1 [NCGC00187978-01, N-isobutyl-5,7-dimethylpyrazolo[,15-a]pyrimidine-3-carboxamide]
Second: Cc1cc(C)n2ncc(C(=O)NCc3ccco3)c2n1 [NCGC00188759-01, N-(furan-2-ylmethyl)-5,7-dimethylpyrazolo[1,5-a]pyrimidine-3-carboxamide]
The AC50 of the first is 1.6-fold lower: 32.6 µM for the first, 51.7 µM for the second.

Compared with `Cc1cc(C)n2ncc(C(=O)NC3CCC(C(C)(C)C)CC3)c2n1` (stereo not drawn) [NCGC00188755-01, N-(4-tert-butylcyclohexyl)-5,7-dimethylpyrazolo[1,5-a]pyrimidine-3-carboxamide], `Cc1cc(C)n2ncc(C(=O)Nc3ccc(C(C)(C)C)cc3)c2n1` [NCGC00188764-01, N-(4-tert-butylphenyl)-5,7-dimethylpyrazolo[1,5-a]pyrimidine-3-carboxamide] is 1.8-fold lower in AC50: 4.11 µM for the first, 2.31 µM for the second.

`Cc1cc(C)n2ncc(C(=O)Nc3cnc4ccccc4c3)c2n1` [NCGC00188762-01, 5,7-dimethyl-N-(quinolin-3-yl)pyrazolo[1,5-a]pyrimidine-3-carboxamide] and `Cc1cc(C)n2ncc(C(=O)Nc3ccc4ccccc4n3)c2n1` [NCGC00188763-01, 5,7-dimethyl-N-(quinolin-2-yl)pyrazolo[1,5-a]pyrimidine-3-carboxamide] are within 1.5-fold of each other in AC50: 16.3 µM for the first, 20.6 µM for the second.

Work on `Cc1cc(C)n2ncc(C(=O)Nc3ccc(C#N)cc3)c2n1` [NCGC00188769-01, N-(4-cyanophenyl)-5,7-dimethylpyrazolo[1,5-a]pyrimidine-3-carboxamide] yielded an AC50 of 20.6 µM.

In the case of `O=C(Nc1ccccc1Sc1ccccc1)c1cnn2c1NC(=C1CC1)C=C2C(F)F` [NCGC00182186-01, 5-cyclopropylidene-7-(difluoromethyl)-N-(2-(phenylthio)phenyl)-4,5-dihydropyrazolo[1,5-a]pyrimidine-3-carboxamide], the AC50 is reported as 13 µM and 7.08 µM.

Reference: patent US10925874B2, “Substituted pyrazolopyrimidines as glucocerebrosidase activators” (The United States of America, as Represented by the …, priority 2010, dated 2021)
